Literature values in patent publication US20090156634A1, “Tropane alkaloids and trigonelline combinations and methods for administering the same” (priority 2007, published 2009).
Where a name gives a salt, the structure may show the parent alone.

Key:
[1] = test system: diaphragm; settings: rats, low-dose
[2] = test system: rat cultured sensory neurons; settings: attributed to inhibition of potassium channels
[3] = test system: dendrites and axons; settings: mice models of Alzheimer's disease
[4] = test system: central nervous system; settings: orally administered to rats

## NCCc1ccc(O)c(O)c1 [dopamine]
[1]
  effect on diaphragm fatigue: can prevent and/or reverse diaphragm fatigue

## C[n+]1cccc(C(=O)[O-])c1 [trigonelline, 3-carboxy-1-methyl-pyridinum inner salt]
[2]
  excitability of the rat dorsal gangliae: increases the excitability
[3]
  effect on dendrites and axons: induce regenerative effects in dendrites and axons
[4]
  central nervous system effect: central nervous system stimulating effects
